A short description of data set [1]: TLC analysis of distribution of substrate and product in CPS. To be noted: FIG. 4. Type of data set: physicochemical. The protocol: TLC analysis was performed to determine the distribution of substrate and products in CPS, using Silica gel 60 F254 (Merck) high-performance thin layer chromatography plates which is developed in Chloroform:ether (1:3) followed by soaking in phosphornolybdic acid solution and drying by heat. Substrate and products were separated, with their Rf values of cholesterol, a-AD and ADD being 0.62, 0.47, and 0.42, respectively.
By TLC analysis, the partition of substrate and product in CPS is viewed in FIG. 4. […] Partition of cells between the two phases is determined with hemocytometry. Its partition coefficient between the coacervate phase and the dilute phase is roughly 10, indicating the surface of Mycobacterium sp. is rather hydrophobic. This is in compliance with the report that Mycobacterium is a hydrophobic microbe.

For data set [2] the following is noted: footnote a: mg/L; cited from earlier work.
The conditions of data set [3]: cited from earlier work.
Data set [4] has as its system Mycobacterium sp. NRRL B 3683. The data set can be described thus: Screening of nonionic surfactant: biocompatibility or potential toxicity to the microorganism, by final ADD concentration in surfactant-amended transformation medium. In kind it is cell-based. The following applies: high concentration of surfactant (2.0 g/100 ml), 28° C., 7 days. The protocol:
Microbial strain, Mycobacterium sp. NRRL B 3683, is preserved in Shanghai Health Creation Center for Biopharmaceuticals R&D. It is able to remove the side chain of cholesterol, giving out ADD and 4-AD as final products, at a ratio of ca. 10:1.
Transformation medium (100 ml): (NH4)SO4 1.0 g, Na2HPO4 0.45 g, KH2PO4 0.34 g, MgSO4.7H2O 0.2 g, cholesterol 0.5 g, nonionic surfactant 2.0 g
The seed culture was grown aerobically at 28° C. at 220 r/min for 3 days with 20 ml of medium in a 250 ml Erlenmeyer flask. The seed culture was then transferred by 10% into 22 ml of transformation medium in a 250 ml Erlenmeyer flask, which was then shaken at 28° C. at 220 r/min for 7 days. A portion of the well-mixed transformation culture broth was withdrawn for analysis.
1 ml of sample was withdrawn from culture broth and extracted with 4 ml of methanol for 2 hrs, followed by centrifugation. 0.8 ml of supernatant was taken for HPLC analysis. Hypesil C18 column using methanol:water (4:1) as mobile phase, flow rate of 0.7 ml/min, and detection wavelength at 254 nm were applied.
For selecting appropriate medium of microbial transformation, biocompatibility or potential toxicity of surfactant to microorganism is critical.

For data set [5] the following is noted: cloud point; cited from earlier work.

In the case of `C[C@]12C=CC(=O)C=C1CC[C@@H]1[C@@H]2CC[C@]2(C)C(=O)CC[C@@H]12` [ADD], the “partition in CPS (dilute phase vs coacervate phase)” value in data set [1] was “based in the coacervate phase”.

As to Tween 40, the CMC in data set [2] is reported as 29^a mg/L.

In the case of `CC(C)CCC[C@@H](C)[C@H]1CC[C@H]2[C@@H]3CC=C4C[C@@H](O)CC[C@]4(C)[C@H]3CC[C@]12C` [cholesterol], in data set [3], the solubility in water entry was “below 1 μM”.

Take Tween 60: the CMC in data set [2] is given as 27^a mg/L.

Regarding Triton X-100, the “biocompatibility with the microorganism” value in data set [4] is reported as “incompatible with the microorganism”. Also, the CP in data set [5] was 64 °C.
